Laboratory results taken from ChEMBL document CHEMBL5212743, “Selectivity Literature for EUbOPEN Chemogenomics Library wave 3” (2023).

Columns and labels:
[1] = target: Histone-lysine N-methyltransferase SMYD3 (Homo sapiens, UniProt Q9H7B4); assay: Selectivity interaction (Methyltransferase panel (Scintillation proximity assay (SPA))) EUB0000212b SMYD3
[2] = target: T1, Histone-lysine N-methyltransferase SETD7 (Homo sapiens, UniProt Q8WTS6); assay: Selectivity interaction (Methyltransferase panel (Scintillation proximity assay (SPA))) EUB0000212b SETD7
T1 sequence (Q8WTS6 whole entry): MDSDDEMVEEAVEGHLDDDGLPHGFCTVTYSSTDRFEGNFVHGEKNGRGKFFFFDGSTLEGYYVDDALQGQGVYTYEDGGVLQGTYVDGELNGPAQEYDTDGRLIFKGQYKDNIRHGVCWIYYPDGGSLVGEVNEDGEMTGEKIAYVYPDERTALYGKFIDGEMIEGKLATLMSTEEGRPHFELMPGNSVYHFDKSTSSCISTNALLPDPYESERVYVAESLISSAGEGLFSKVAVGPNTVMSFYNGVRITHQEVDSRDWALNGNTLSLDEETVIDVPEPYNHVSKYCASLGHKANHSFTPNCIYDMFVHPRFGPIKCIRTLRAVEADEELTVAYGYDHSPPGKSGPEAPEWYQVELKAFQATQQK

[3] = target: Protein arginine N-methyltransferase 3 (Homo sapiens, UniProt O60678); assay: Selectivity interaction (Methyltransferase panel (Scintillation proximity assay (SPA))) EUB0000212b PRMT3
[4] = target: Protein arginine N-methyltransferase 1 (Homo sapiens, UniProt Q99873); assay: Selectivity interaction (Methyltransferase panel (Scintillation proximity assay (SPA))) EUB0000212b PRMT1
[5] = target: Histone-lysine N-methyltransferase SETDB1 (Homo sapiens, UniProt Q15047); assay: Selectivity interaction (Methyltransferase panel (Scintillation proximity assay (SPA))) EUB0000212b SETDB1
[6] = target: Histone-lysine N-methyltransferase 2A (Homo sapiens, UniProt Q03164); assay: Selectivity interaction (Methyltransferase panel (Scintillation proximity assay (SPA))) EUB0000212b MLL
[7] = target: Histone-lysine N-methyltransferase KMT5B (Homo sapiens, UniProt Q4FZB7); assay: Selectivity interaction (Methyltransferase panel (Scintillation proximity assay (SPA))) EUB0000212b SUV420H1
[8] = target: Histone-lysine N-methyltransferase KMT5C (Homo sapiens, UniProt Q86Y97); assay: Selectivity interaction (Methyltransferase panel (Scintillation proximity assay (SPA))) EUB0000212b SUV420H2
[9] = target: Histone-lysine N-methyltransferase SUV39H2 (Homo sapiens, UniProt Q9H5I1); assay: Selectivity interaction (Methyltransferase panel (Scintillation proximity assay (SPA))) EUB0000212b SUV39H2
[10] = target: Histone-lysine N-methyltransferase EZH2 (Homo sapiens, UniProt Q15910); assay: Selectivity interaction (Methyltransferase panel (Scintillation proximity assay (SPA))) EUB0000212b EZH2
[11] = target: Histone-lysine N-methyltransferase NSD3 (Homo sapiens, UniProt Q9BZ95); assay: Selectivity interaction (Methyltransferase panel (Scintillation proximity assay (SPA))) EUB0000212b NSD3
[12] = target: Protein arginine N-methyltransferase 8 (Homo sapiens, UniProt Q9NR22); assay: Selectivity interaction (Methyltransferase panel (Scintillation proximity assay (SPA))) EUB0000212b PRMT8
[13] = target: Histone-lysine N-methyltransferase NSD2 (Homo sapiens, UniProt O96028); assay: Selectivity interaction (Methyltransferase panel (Scintillation proximity assay (SPA))) EUB0000212b NSD2
[14] = target: T2, N-lysine methyltransferase KMT5A (Homo sapiens, UniProt Q9NQR1); assay: Selectivity interaction (Methyltransferase panel (Scintillation proximity assay (SPA))) EUB0000212b SETD8
T2 sequence (Q9NQR1 whole entry): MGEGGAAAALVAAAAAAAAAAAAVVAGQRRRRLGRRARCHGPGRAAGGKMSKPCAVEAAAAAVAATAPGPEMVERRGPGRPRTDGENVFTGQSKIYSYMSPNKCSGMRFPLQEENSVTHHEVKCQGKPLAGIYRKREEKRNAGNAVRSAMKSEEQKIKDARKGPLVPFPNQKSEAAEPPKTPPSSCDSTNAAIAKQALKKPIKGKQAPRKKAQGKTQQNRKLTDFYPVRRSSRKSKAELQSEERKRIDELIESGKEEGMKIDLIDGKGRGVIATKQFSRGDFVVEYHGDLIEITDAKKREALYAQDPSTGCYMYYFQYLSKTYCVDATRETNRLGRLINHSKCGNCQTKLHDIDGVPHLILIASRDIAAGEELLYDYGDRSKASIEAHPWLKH

[15] = target: Protein arginine N-methyltransferase 6 (Homo sapiens, UniProt Q96LA8); assay: Selectivity interaction (Methyltransferase panel (Scintillation proximity assay (SPA))) EUB0000212b PRMT6
[16] = target: Protein arginine N-methyltransferase 5 (Homo sapiens, UniProt O14744); assay: Selectivity interaction (Methyltransferase panel (Scintillation proximity assay (SPA))) EUB0000212b PRMT5
[17] = target: Histone-lysine N-methyltransferase, H3 lysine-79 specific (Homo sapiens, UniProt Q8TEK3); assay: Selectivity interaction (Methyltransferase panel (Scintillation proximity assay (SPA))) EUB0000212b DOT1L
[18] = target: DNA (cytosine-5)-methyltransferase 1 (Homo sapiens, UniProt P26358); assay: Selectivity interaction (Methyltransferase panel (Scintillation proximity assay (SPA))) EUB0000212b DNMT1
[19] = target: T3, Histone-lysine N-methyltransferase EZH1 (Homo sapiens, UniProt Q92800); assay: Selectivity interaction (Methyltransferase panel (Scintillation proximity assay (SPA))) EUB0000212b EZH1
T3 sequence (Q92800 whole entry): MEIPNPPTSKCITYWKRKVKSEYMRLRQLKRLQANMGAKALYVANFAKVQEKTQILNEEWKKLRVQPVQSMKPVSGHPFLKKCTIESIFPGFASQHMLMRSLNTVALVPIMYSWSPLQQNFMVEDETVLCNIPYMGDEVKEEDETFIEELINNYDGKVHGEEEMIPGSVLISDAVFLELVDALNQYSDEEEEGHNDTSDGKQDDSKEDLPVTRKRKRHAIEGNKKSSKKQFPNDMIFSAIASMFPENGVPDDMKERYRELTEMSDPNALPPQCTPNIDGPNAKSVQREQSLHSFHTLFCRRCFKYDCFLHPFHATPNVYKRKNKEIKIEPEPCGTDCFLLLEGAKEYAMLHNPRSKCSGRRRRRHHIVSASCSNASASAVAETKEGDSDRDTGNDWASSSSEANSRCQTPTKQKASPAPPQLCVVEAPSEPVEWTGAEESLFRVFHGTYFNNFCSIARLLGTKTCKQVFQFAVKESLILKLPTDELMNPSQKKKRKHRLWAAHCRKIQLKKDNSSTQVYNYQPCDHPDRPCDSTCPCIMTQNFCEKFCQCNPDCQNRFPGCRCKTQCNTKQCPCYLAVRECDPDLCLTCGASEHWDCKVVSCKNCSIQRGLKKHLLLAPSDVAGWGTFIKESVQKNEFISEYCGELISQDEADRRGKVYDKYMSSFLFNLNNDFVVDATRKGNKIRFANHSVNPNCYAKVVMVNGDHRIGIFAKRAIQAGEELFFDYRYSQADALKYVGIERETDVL

Adenosine receptor A1 = Adenosine receptor A1 (Homo sapiens, UniProt P30542); assay: (§1) Selectivity interaction (CEREP panel (GPCRS, ion channels, transporters)) EUB0000193b ADORA1
[20] = target: T4, Adenosine receptor A1 (Homo sapiens) (UniProt P30542); assay: as §1; details: Inactive against protein arginine methyltransferases,, at 10 µM
T4 sequence (whole entry): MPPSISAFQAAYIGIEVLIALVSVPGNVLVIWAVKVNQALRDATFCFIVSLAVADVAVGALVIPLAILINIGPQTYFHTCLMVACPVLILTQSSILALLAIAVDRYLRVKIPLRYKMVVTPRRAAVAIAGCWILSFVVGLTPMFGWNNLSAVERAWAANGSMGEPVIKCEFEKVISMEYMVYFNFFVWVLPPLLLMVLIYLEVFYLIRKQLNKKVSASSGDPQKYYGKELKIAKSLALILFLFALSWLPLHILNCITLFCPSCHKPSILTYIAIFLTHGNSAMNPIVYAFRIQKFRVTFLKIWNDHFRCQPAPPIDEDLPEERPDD

[21] = target: Delta-type opioid receptor (Homo sapiens) (UniProt P41143); assay: Selectivity interaction (CEREP panel (GPCRS, ion channels, transporters)) EUB0000193b OPRD1; details: Inactive against protein arginine methyltransferases,, at 10 µM
[22] = target: T5, Adenosine receptor A3 (Homo sapiens) (UniProt P0DMS8); assay: Selectivity interaction (CEREP panel (GPCRS, ion channels, transporters)) EUB0000193b ADORA3; details: Inactive against protein arginine methyltransferases,, at 10 µM
T5 sequence (whole entry): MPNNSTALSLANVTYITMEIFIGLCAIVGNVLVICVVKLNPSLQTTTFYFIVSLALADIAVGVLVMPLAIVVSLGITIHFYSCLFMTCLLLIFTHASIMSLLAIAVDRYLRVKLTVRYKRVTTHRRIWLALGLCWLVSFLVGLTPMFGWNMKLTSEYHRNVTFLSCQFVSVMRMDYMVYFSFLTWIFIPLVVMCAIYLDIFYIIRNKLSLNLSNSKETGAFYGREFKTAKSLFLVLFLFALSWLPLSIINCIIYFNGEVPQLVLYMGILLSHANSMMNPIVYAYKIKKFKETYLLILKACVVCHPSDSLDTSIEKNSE

[23] = target: Kappa-type opioid receptor (Homo sapiens, UniProt P41145); assay: Selectivity interaction (CEREP panel (GPCRS, ion channels, transporters)) EUB0000193b OPRK1; details: Inactive against protein arginine methyltransferases,, at 10 µM
[24] = target: T6, Gamma-aminobutyric acid receptor subunit alpha-1 (Homo sapiens, UniProt P14867); assay: (§2) Selectivity interaction (CEREP panel (GPCRS, ion channels, transporters)) EUB0000193b GABRA1
T6 sequence (P14867 whole entry): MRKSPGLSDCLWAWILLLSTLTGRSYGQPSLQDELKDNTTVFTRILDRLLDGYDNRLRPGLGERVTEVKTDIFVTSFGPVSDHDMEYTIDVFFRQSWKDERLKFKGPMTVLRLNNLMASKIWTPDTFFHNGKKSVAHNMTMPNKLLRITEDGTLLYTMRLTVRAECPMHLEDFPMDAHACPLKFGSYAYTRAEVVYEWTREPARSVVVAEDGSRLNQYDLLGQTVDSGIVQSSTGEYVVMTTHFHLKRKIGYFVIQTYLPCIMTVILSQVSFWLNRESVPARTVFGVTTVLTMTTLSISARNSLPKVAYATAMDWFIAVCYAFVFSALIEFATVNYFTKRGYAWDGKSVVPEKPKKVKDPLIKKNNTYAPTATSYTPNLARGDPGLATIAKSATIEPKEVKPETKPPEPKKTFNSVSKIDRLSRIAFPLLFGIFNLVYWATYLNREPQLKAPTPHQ

[25] = target: Substance-K receptor (Homo sapiens) (UniProt P21452); assay: Selectivity interaction (CEREP panel (GPCRS, ion channels, transporters)) EUB0000193b TACR2; details: Inactive against protein arginine methyltransferases,, at 10 µM
[26] = target: Histone-lysine N-methyltransferase NSD2 (Homo sapiens) (UniProt O96028); assay: Selectivity interaction (Epigenetic methyltransferases panel) EUB0000193b NSD2; details: Inactive against protein arginine methyltransferases,, at 10 µM
[27] = target: Adenosine receptor A2a (Homo sapiens) (UniProt P29274); assay: Selectivity interaction (CEREP panel (GPCRS, ion channels, transporters)) EUB0000193b ADORA2A; details: Inactive against protein arginine methyltransferases,, at 10 µM
[28] = target: T7, Gamma-aminobutyric acid receptor subunit alpha-1 (Homo sapiens) (UniProt P14867); assay: as §2; details: Inactive against protein arginine methyltransferases,, at 10 µM
T7 sequence (whole entry): T6 sequence (P14867 whole entry)

Sequence of Histone-lysine N-methyltransferase NSD2 (Homo sapiens) (O96028 whole entry): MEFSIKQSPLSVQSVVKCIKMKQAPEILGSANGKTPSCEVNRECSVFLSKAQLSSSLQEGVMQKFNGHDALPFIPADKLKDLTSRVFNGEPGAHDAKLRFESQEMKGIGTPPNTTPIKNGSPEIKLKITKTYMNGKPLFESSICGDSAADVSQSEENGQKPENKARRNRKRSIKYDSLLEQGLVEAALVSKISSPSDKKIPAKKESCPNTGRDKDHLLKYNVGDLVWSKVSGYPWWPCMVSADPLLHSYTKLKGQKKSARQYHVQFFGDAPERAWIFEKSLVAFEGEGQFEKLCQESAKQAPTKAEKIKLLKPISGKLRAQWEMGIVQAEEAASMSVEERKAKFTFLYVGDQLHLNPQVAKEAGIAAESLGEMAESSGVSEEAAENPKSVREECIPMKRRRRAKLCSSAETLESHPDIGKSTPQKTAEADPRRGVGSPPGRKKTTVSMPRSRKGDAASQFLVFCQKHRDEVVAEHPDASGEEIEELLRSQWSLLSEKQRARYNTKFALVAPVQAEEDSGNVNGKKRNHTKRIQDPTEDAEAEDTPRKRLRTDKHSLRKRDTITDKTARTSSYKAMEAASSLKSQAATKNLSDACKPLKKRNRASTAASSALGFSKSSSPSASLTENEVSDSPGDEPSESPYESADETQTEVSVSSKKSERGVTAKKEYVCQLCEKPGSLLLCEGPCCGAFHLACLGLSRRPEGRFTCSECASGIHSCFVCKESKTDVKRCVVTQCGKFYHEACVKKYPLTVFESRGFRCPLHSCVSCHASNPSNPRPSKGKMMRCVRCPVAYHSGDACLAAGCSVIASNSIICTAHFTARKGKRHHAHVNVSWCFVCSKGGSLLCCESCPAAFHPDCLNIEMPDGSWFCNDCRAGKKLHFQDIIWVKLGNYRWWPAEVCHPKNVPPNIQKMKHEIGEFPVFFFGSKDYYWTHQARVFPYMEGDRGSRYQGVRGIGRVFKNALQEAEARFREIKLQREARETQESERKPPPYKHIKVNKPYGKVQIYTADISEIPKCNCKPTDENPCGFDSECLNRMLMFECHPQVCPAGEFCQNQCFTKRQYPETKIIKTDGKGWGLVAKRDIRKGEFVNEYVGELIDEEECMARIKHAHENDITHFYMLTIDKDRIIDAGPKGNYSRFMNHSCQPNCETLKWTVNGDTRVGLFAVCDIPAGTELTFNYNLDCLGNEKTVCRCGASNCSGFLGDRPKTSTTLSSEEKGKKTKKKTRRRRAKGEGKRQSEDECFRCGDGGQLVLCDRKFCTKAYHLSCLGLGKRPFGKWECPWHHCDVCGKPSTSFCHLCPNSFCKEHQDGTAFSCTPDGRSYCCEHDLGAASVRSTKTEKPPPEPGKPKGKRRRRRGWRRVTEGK
Sequence of Histone-lysine N-methyltransferase NSD2 (O96028 whole entry): as above
Sequence of Histone-lysine N-methyltransferase SMYD3 (Q9H7B4 whole entry): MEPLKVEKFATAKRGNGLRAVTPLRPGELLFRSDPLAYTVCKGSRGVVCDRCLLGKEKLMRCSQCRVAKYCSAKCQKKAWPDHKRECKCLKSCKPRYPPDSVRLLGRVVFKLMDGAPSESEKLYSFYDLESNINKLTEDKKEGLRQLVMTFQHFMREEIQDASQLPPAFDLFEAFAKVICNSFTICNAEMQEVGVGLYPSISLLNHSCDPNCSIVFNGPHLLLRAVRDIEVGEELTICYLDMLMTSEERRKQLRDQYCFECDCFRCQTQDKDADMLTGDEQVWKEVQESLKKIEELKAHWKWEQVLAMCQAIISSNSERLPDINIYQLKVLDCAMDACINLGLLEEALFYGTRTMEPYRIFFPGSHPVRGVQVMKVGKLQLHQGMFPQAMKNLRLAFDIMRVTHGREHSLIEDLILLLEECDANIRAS
Sequence of Protein arginine N-methyltransferase 5 (O14744 whole entry): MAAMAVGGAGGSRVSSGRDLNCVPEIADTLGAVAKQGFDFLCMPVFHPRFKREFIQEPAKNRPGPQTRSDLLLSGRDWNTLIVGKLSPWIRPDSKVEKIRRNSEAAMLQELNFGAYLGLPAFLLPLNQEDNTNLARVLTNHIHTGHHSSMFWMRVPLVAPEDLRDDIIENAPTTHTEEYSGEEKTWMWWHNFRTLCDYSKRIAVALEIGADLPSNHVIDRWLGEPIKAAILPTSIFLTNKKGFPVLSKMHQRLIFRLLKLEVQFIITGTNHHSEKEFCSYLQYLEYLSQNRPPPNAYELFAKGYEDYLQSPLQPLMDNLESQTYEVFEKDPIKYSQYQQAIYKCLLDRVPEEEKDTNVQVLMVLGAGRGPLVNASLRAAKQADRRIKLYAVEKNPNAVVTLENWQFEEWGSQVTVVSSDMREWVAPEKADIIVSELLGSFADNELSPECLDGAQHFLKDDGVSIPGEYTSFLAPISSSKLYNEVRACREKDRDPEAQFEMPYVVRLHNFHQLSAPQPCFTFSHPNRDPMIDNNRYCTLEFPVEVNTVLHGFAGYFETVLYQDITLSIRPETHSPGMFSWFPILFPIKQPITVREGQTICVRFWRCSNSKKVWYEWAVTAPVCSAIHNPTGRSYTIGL
Sequence of Protein arginine N-methyltransferase 1 (Q99873 whole entry): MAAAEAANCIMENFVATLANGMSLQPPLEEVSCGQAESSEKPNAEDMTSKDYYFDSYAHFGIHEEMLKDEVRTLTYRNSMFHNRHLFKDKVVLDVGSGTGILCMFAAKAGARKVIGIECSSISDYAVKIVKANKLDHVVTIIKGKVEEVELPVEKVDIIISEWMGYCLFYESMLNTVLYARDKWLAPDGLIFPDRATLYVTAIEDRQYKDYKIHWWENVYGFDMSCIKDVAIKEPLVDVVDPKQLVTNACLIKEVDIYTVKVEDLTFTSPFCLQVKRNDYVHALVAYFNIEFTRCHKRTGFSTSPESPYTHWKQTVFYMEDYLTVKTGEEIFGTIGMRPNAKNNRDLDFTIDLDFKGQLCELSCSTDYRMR
Sequence of Adenosine receptor A2a (Homo sapiens) (P29274 whole entry): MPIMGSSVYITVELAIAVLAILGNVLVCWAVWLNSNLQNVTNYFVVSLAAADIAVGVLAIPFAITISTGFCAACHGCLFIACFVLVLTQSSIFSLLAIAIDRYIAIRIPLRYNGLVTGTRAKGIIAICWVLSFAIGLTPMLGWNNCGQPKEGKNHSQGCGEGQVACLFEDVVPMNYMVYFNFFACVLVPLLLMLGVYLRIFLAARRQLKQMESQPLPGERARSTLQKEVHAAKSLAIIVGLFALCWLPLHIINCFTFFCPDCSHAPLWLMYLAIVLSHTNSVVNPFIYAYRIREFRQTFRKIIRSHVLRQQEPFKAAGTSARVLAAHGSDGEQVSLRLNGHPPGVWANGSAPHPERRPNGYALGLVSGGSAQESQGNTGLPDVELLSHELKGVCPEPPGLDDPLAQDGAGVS
Sequence of Histone-lysine N-methyltransferase NSD3 (Q9BZ95 whole entry): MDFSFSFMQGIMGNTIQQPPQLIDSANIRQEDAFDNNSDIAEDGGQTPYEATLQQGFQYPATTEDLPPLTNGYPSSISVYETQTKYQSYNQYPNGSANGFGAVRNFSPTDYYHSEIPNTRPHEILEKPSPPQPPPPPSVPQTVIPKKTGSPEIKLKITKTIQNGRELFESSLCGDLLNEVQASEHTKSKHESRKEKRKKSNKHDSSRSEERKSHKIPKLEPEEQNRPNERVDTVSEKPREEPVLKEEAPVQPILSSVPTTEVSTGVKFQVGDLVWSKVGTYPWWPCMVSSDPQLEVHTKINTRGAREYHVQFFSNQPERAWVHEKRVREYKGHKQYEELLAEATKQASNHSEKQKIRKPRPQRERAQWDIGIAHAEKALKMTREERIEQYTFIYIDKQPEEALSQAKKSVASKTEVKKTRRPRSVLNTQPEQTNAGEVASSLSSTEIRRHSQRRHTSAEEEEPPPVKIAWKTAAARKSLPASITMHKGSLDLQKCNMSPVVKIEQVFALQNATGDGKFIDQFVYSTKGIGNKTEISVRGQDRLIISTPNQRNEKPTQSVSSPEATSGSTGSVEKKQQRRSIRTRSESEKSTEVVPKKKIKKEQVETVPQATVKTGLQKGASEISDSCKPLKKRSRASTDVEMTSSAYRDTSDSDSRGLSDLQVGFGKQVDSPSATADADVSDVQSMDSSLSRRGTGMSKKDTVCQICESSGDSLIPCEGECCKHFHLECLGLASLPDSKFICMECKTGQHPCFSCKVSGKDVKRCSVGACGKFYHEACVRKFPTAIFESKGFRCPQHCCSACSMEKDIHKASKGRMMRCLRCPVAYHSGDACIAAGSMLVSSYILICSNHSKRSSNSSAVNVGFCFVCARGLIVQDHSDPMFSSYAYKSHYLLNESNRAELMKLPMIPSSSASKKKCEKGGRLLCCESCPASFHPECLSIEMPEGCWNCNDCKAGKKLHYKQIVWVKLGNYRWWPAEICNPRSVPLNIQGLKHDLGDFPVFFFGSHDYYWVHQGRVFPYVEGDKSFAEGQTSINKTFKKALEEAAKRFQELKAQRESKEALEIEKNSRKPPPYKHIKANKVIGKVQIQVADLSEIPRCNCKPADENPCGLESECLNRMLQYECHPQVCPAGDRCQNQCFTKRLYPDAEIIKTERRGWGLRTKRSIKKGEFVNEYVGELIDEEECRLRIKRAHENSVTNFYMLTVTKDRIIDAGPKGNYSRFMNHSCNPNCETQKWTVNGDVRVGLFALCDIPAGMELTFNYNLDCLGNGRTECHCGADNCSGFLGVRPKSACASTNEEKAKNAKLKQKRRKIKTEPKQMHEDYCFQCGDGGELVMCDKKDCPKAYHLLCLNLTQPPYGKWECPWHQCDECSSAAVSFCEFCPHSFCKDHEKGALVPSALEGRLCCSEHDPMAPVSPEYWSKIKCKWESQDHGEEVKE
Sequence of Kappa-type opioid receptor (P41145 whole entry): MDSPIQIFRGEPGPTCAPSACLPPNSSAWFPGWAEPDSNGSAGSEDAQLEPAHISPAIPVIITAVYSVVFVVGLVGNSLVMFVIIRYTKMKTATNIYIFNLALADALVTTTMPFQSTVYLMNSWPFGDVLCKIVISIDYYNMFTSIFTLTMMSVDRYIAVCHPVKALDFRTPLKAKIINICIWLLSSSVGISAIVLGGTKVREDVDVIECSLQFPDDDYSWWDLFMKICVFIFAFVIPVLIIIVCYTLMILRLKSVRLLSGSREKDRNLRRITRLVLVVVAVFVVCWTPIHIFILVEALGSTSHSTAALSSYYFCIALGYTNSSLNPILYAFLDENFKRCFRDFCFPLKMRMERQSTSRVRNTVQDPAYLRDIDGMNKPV

## COc1cc2c(cc1OCCCN1CCCC1)N=C(N)C21CCC1
[1]
  EC50: > 50 µM
[2]
  EC50: > 50 µM
[3]
  EC50: > 50 µM
[4]
  EC50: > 50 µM
[5]
  EC50: > 50 µM
[6]
  EC50: > 50 µM
[7]
  EC50: > 50 µM
[8]
  EC50: > 50 µM
[9]
  EC50: > 50 µM
[10]
  EC50: > 50 µM
[11]
  EC50: > 50 µM
[12]
  EC50: > 50 µM
[13]
  EC50: > 50 µM
[14]
  EC50: > 50 µM
[15]
  EC50: > 50 µM
[16]
  EC50: > 50 µM
[17]
  EC50: > 50 µM
[18]
  EC50: > 50 µM
[19]
  EC50: > 50 µM

## Clc1cc2c(NC3CCCC3)nnc(-c3ccncc3)c2cc1Cl
Adenosine receptor A1
  Ki: 0.012 µM
[20]
  % of inhibition: 98%
[21]
  % of inhibition: 51%
[22]
  % of inhibition: 74%
[23]
  % of inhibition: 62%
[24]
  Ki: 1.8 µM
[25]
  % of inhibition: 61%
[26]
  % of activity remaining: 90%
[27]
  % of inhibition: 98%
[28]
  % of inhibition: 90%
